Tests used:
Format in all cases: cell-based
Conditions in all cases: compound concentration 50 μM, 72 hours
SU-DHL6 = test: Inhibition of tumor cell proliferation, CellTiter-Glo, SU-DHL6
Summary of the method: (§1)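 Compound tested at 50 μM for 72 h, read by CellTiter-Glo. Survival rate = (treated−blank)/(control−blank) RLU ×100, binned as +++ ≤30%, ++ >30-≤60%, + 60-<90%. Seeding 2000-10000 cells/well depending on growth rate.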

BxPC-3 = test: Inhibition of tumor cell proliferation, CellTiter-Glo, BxPC-3
Summary of the method: as §1

RPMI-8226 = test: Inhibition of tumor cell proliferation, CellTiter-Glo, RPMI-8226
Summary of the method: as §1

K562 = test: Inhibition of tumor cell proliferation, CellTiter-Glo, K562
Summary of the method: as §1

MDA-MB-453 = test: Inhibition of tumor cell proliferation, CellTiter-Glo, MDA-MB-453
Summary of the method: as §1

A549 = test: Inhibition of tumor cell proliferation, CellTiter-Glo, A549
Summary of the method: as §1

In the case of `CC(Nc1cccc2c1CN(C1CCC(=O)NC1=O)C2=O)=C1C(=O)CC(c2ccccc2)CC1=O` (stereo not drawn) [Compound 73], the “Inhibitory activity against proliferation (cell survival rate) SU-DHL6” value (SU-DHL6) is reported as “+++ (survival rate (%)≤30)”, the “Inhibitory activity against proliferation (cell survival rate) BxPC-3” value (BxPC-3) is reported as “+ (60≤survival rate (%)<90)” and the “Inhibitory activity against proliferation (cell survival rate) RPMI-8226” value (RPMI-8226) is reported as “+ (60≤survival rate (%)<90)”. The “Inhibitory activity against proliferation (cell survival rate) K562” value (K562) was “+++ (survival rate (%)≤30)”, the “Inhibitory activity against proliferation (cell survival rate) MDA-MB-453” value (MDA-MB-453) was “+++ (survival rate (%)≤30)” and the “Inhibitory activity against proliferation (cell survival rate) A549” value (A549) was “+++ (survival rate (%)≤30)”.

For `O=C1CCC(N2Cc3c(NC(CO)=C4C(=O)CC(c5ccccc5)CC4=O)cccc3C2=O)C(=O)N1` (stereo not drawn) [Compound 74], the “Inhibitory activity against proliferation (cell survival rate) SU-DHL6” value (SU-DHL6) was “+ (60≤survival rate (%)<90)”, the “Inhibitory activity against proliferation (cell survival rate) BxPC-3” value (BxPC-3) was “+ (60≤survival rate (%)<90)” and the “Inhibitory activity against proliferation (cell survival rate) RPMI-8226” value (RPMI-8226) was “+ (60≤survival rate (%)<90)”. The “Inhibitory activity against proliferation (cell survival rate) K562” value (K562) was “+ (60≤survival rate (%)<90)”, the “Inhibitory activity against proliferation (cell survival rate) MDA-MB-453” value (MDA-MB-453) was “+ (60≤survival rate (%)<90)” and the “Inhibitory activity against proliferation (cell survival rate) A549” value (A549) was “+ (60≤survival rate (%)<90)”.

With `O=C1CCC(N2Cc3c(NC(=O)NCCNC=C4C(=O)CC(c5ccccc5)CC4=O)cccc3C2=O)C(=O)N1` (stereo not drawn) [Compound 77] the “Inhibitory activity against proliferation (cell survival rate) SU-DHL6” value (SU-DHL6) was “+ (60≤survival rate (%)<90)”, the “Inhibitory activity against proliferation (cell survival rate) BxPC-3” value (BxPC-3) was “+ (60≤survival rate (%)<90)” and the “Inhibitory activity against proliferation (cell survival rate) RPMI-8226” value (RPMI-8226) was “+ (60≤survival rate (%)<90)”. For the same compound, the “Inhibitory activity against proliferation (cell survival rate) K562” value (K562) was “+++ (survival rate (%)≤30)”, the “Inhibitory activity against proliferation (cell survival rate) MDA-MB-453” value (MDA-MB-453) was “+++ (survival rate (%)≤30)” and the “Inhibitory activity against proliferation (cell survival rate) A549” value (A549) was “+++ (survival rate (%)≤30)”.

With `O=C1CCC(N2Cc3c(NC(=O)OCCNC=C4C(=O)CC(c5ccccc5)CC4=O)cccc3C2=O)C(=O)N1` (stereo not drawn) [Compound 78] the “Inhibitory activity against proliferation (cell survival rate) SU-DHL6” value (SU-DHL6) was “+ (60≤survival rate (%)<90)”, the “Inhibitory activity against proliferation (cell survival rate) BxPC-3” value (BxPC-3) was “+ (60≤survival rate (%)<90)” and the “Inhibitory activity against proliferation (cell survival rate) RPMI-8226” value (RPMI-8226) was “+ (60≤survival rate (%)<90)”. The “Inhibitory activity against proliferation (cell survival rate) K562” value (K562) was “+++ (survival rate (%)≤30)”, the “Inhibitory activity against proliferation (cell survival rate) MDA-MB-453” value (MDA-MB-453) was “+++ (survival rate (%)≤30)” and the “Inhibitory activity against proliferation (cell survival rate) A549” value (A549) was “+++ (survival rate (%)≤30)”.

In the case of `O=C1CCC(N2Cc3c(NC(=O)OCCN4CCN(CCNC=C5C(=O)CC(c6ccccc6)CC5=O)CC4)cccc3C2=O)C(=O)N1` (stereo not drawn) [Compound 79], the “Inhibitory activity against proliferation (cell survival rate) SU-DHL6” value (SU-DHL6) is reported as “+ (60≤survival rate (%)<90)”, the “Inhibitory activity against proliferation (cell survival rate) BxPC-3” value (BxPC-3) is reported as “++ (30<survival rate (%)≤60)” and the “Inhibitory activity against proliferation (cell survival rate) RPMI-8226” value (RPMI-8226) is reported as “+++ (survival rate (%)≤30)”. The “Inhibitory activity against proliferation (cell survival rate) K562” value (K562) was “+ (60≤survival rate (%)<90)”, the “Inhibitory activity against proliferation (cell survival rate) MDA-MB-453” value (MDA-MB-453) was “++ (30<survival rate (%)≤60)” and the “Inhibitory activity against proliferation (cell survival rate) A549” value (A549) was “+ (60≤survival rate (%)<90)”.

For `O=C1CCC(N2C(=O)c3cccc(NC(=O)OCCN4CCN(CCNC=C5C(=O)CC(c6ccccc6)CC5=O)CC4)c3C2=O)C(=O)N1` (stereo not drawn) [Compound 80], the “Inhibitory activity against proliferation (cell survival rate) SU-DHL6” value (SU-DHL6) was “+ (60≤survival rate (%)<90)”, the “Inhibitory activity against proliferation (cell survival rate) BxPC-3” value (BxPC-3) was “+ (60≤survival rate (%)<90)” and the “Inhibitory activity against proliferation (cell survival rate) RPMI-8226” value (RPMI-8226) was “+++ (survival rate (%)≤30)”. For the same compound, the “Inhibitory activity against proliferation (cell survival rate) K562” value (K562) was “+++ (survival rate (%)≤30)”, the “Inhibitory activity against proliferation (cell survival rate) MDA-MB-453” value (MDA-MB-453) was “++ (30<survival rate (%)≤60)” and the “Inhibitory activity against proliferation (cell survival rate) A549” value (A549) was “+++ (survival rate (%)≤30)”.

For `O=C1CCC(N2Cc3c(NC(=O)Nc4ccccc4OC(=O)CCC(=O)OCCN4CCN(CCNC=C5C(=O)CC(c6ccccc6)CC5=O)CC4)cccc3C2=O)C(=O)N1` (stereo not drawn) [Compound 81], the “Inhibitory activity against proliferation (cell survival rate) SU-DHL6” value (SU-DHL6) was “+++ (survival rate (%)≤30)”, the “Inhibitory activity against proliferation (cell survival rate) BxPC-3” value (BxPC-3) was “+ (60≤survival rate (%)<90)” and the “Inhibitory activity against proliferation (cell survival rate) RPMI-8226” value (RPMI-8226) was “+ (60≤survival rate (%)<90)”. The “Inhibitory activity against proliferation (cell survival rate) K562” value (K562) was “+++ (survival rate (%)≤30)”, the “Inhibitory activity against proliferation (cell survival rate) MDA-MB-453” value (MDA-MB-453) was “++ (30<survival rate (%)≤60)” and the “Inhibitory activity against proliferation (cell survival rate) A549” value (A549) was “+++ (survival rate (%)≤30)”.

For `O=C1CCC(N2Cc3c(NC(=O)OCc4ccc(NC=C5C(=O)CC(c6ccccc6)CC5=O)nc4)cccc3C2=O)C(=O)N1` (stereo not drawn) [Compound 82], the cell survival rate (% of control) at 50 µM (SU-DHL6; Homo sapiens, SU-DHL-6, read-out: Inhibitory activity against proliferation (cell survival rate) SU-DHL6) was at most 30%, the cell survival rate (%) at 50 µM (BxPC-3; Homo sapiens, BXPC-3, read-out: Inhibitory activity against proliferation (cell survival rate) BxPC-3) was 60 to 90% and the cell survival rate (% of control) at 50 µM (RPMI-8226; Homo sapiens, RPMI-8226, read-out: Inhibitory activity against proliferation (cell survival rate) RPMI-8226) was 60 to 90%. It also gave a cell survival rate (%) at 50 µM (K562; Homo sapiens, K562, read-out: Inhibitory activity against proliferation (cell survival rate) K562) of 60 to 90%, a cell survival rate (%) at 50 µM (MDA-MB-453; Homo sapiens, MDA-MB-453, read-out: Inhibitory activity against proliferation (cell survival rate) MDA-MB-453) of 30 to 60% and a cell survival rate (% of control) at 50 µM (A549; Homo sapiens, A549, read-out: Inhibitory activity against proliferation (cell survival rate) A549) of at most 30%.

For `O=C1CCC(N2C(=O)c3cccc(NC(=O)OCc4ccc(NC=C5C(=O)CC(c6ccccc6)CC5=O)nc4)c3C2=O)C(=O)N1` (stereo not drawn) [Compound 83], the “Inhibitory activity against proliferation (cell survival rate) SU-DHL6” value (SU-DHL6) was “+ (60≤survival rate (%)<90)”, the “Inhibitory activity against proliferation (cell survival rate) BxPC-3” value (BxPC-3) was “+ (60≤survival rate (%)<90)” and the “Inhibitory activity against proliferation (cell survival rate) RPMI-8226” value (RPMI-8226) was “+ (60≤survival rate (%)<90)”. For the same compound, the “Inhibitory activity against proliferation (cell survival rate) K562” value (K562) was “+ (60≤survival rate (%)<90)”, the “Inhibitory activity against proliferation (cell survival rate) MDA-MB-453” value (MDA-MB-453) was “++ (30<survival rate (%)≤60)” and the “Inhibitory activity against proliferation (cell survival rate) A549” value (A549) was “+ (60≤survival rate (%)<90)”.

With `O=C1CCC(N2Cc3c(NC(=O)OCc4cnc(NC=C5C(=O)CC(c6ccccc6)CC5=O)s4)cccc3C2=O)C(=O)N1` (stereo not drawn) [Compound 84] the “Inhibitory activity against proliferation (cell survival rate) SU-DHL6” value (SU-DHL6) was “+++ (survival rate (%)≤30)”, the “Inhibitory activity against proliferation (cell survival rate) BxPC-3” value (BxPC-3) was “+ (60≤survival rate (%)<90)” and the “Inhibitory activity against proliferation (cell survival rate) RPMI-8226” value (RPMI-8226) was “+++ (survival rate (%)≤30)”. For the same compound, the “Inhibitory activity against proliferation (cell survival rate) K562” value (K562) was “+++ (survival rate (%)≤30)”, the “Inhibitory activity against proliferation (cell survival rate) MDA-MB-453” value (MDA-MB-453) was “+++ (survival rate (%)≤30)” and the “Inhibitory activity against proliferation (cell survival rate) A549” value (A549) was “+ (60≤survival rate (%)<90)”.

With `O=C1CCC(N2Cc3c(NC(=O)OCOC(=O)C=CC(=O)N4CCN(CCNC=C5C(=O)CC(c6ccccc6)CC5=O)CC4)cccc3C2=O)C(=O)N1` (stereo not drawn) [Compound 85] the “Inhibitory activity against proliferation (cell survival rate) SU-DHL6” value (SU-DHL6) was “+ (60≤survival rate (%)<90)”, the “Inhibitory activity against proliferation (cell survival rate) BxPC-3” value (BxPC-3) was “+ (60≤survival rate (%)<90)” and the “Inhibitory activity against proliferation (cell survival rate) RPMI-8226” value (RPMI-8226) was “+++ (survival rate (%)≤30)”. The “Inhibitory activity against proliferation (cell survival rate) K562” value (K562) was “++ (30<survival rate (%)≤60)”, the “Inhibitory activity against proliferation (cell survival rate) MDA-MB-453” value (MDA-MB-453) was “+ (60≤survival rate (%)<90)” and the “Inhibitory activity against proliferation (cell survival rate) A549” value (A549) was “++ (30<survival rate (%)≤60)”.

`O=C1CCC(N2C(=O)c3cccc(NC(=O)OCOC(=O)/C=C/C(=O)N4CCN(CCNC=C5C(=O)CC(c6ccccc6)CC5=O)CC4)c3C2=O)C(=O)N1` (stereo not drawn) [Compound 86] was tested, and the “Inhibitory activity against proliferation (cell survival rate) SU-DHL6” value (SU-DHL6) was “+ (60≤survival rate (%)<90)”, the “Inhibitory activity against proliferation (cell survival rate) BxPC-3” value (BxPC-3) was “++ (30<survival rate (%)≤60)” and the “Inhibitory activity against proliferation (cell survival rate) RPMI-8226” value (RPMI-8226) was “+ (60≤survival rate (%)<90)”. For the same compound, the “Inhibitory activity against proliferation (cell survival rate) K562” value (K562) was “+++ (survival rate (%)≤30)”, the “Inhibitory activity against proliferation (cell survival rate) MDA-MB-453” value (MDA-MB-453) was “+++ (survival rate (%)≤30)” and the “Inhibitory activity against proliferation (cell survival rate) A549” value (A549) was “+++ (survival rate (%)≤30)”.

`O=C1CCC(N2Cc3c(NC(=O)OCCOCCN4CCN(CCNC=C5C(=O)CC(c6ccccc6)CC5=O)CC4)cccc3C2=O)C(=O)N1` (stereo not drawn) [Compound 87] was tested, and the “Inhibitory activity against proliferation (cell survival rate) SU-DHL6” value (SU-DHL6) was “+++ (survival rate (%)≤30)”, the “Inhibitory activity against proliferation (cell survival rate) BxPC-3” value (BxPC-3) was “+ (60≤survival rate (%)<90)” and the “Inhibitory activity against proliferation (cell survival rate) RPMI-8226” value (RPMI-8226) was “+++ (survival rate (%)≤30)”. For the same compound, the “Inhibitory activity against proliferation (cell survival rate) K562” value (K562) was “++ (30<survival rate (%)≤60)”, the “Inhibitory activity against proliferation (cell survival rate) MDA-MB-453” value (MDA-MB-453) was “+++ (survival rate (%)≤30)” and the “Inhibitory activity against proliferation (cell survival rate) A549” value (A549) was “++ (30<survival rate (%)≤60)”.

`O=C1CCC(N2Cc3c(NC(=O)CCC(=O)N4CCN(CCNC=C5C(=O)CC(c6ccccc6)CC5=O)CC4)cccc3C2=O)C(=O)N1` (stereo not drawn) [Compound 91] was tested, and the “Inhibitory activity against proliferation (cell survival rate) SU-DHL6” value (SU-DHL6) was “++ (30<survival rate (%)≤60)”, the “Inhibitory activity against proliferation (cell survival rate) BxPC-3” value (BxPC-3) was “+ (60≤survival rate (%)<90)” and the “Inhibitory activity against proliferation (cell survival rate) RPMI-8226” value (RPMI-8226) was “++ (30<survival rate (%)≤60)”. For the same compound, the “Inhibitory activity against proliferation (cell survival rate) K562” value (K562) was “++ (30<survival rate (%)≤60)”, the “Inhibitory activity against proliferation (cell survival rate) MDA-MB-453” value (MDA-MB-453) was “++ (30<survival rate (%)≤60)” and the “Inhibitory activity against proliferation (cell survival rate) A549” value (A549) was “++ (30<survival rate (%)≤60)”.

From patent US11021457B2, “Class of isoindolone-imide ring-1,3-dione-2-ene compounds, composition and use thereof” (WIGEN BIOMEDICINE TECHNOLOGY (SHANGHAI) CO., LTD., priority 2017, dated 2021)
